{"source": "patent US20120083522A1", "about": "“MODULATION OF INFLAMMATORY RESPONSES BY FACTOR XI” (Isis Pharmaceuitcals, inc., priority 2009, published 2012)", "format_in_all_cases": "in vivo", "key": {"[1]": {"assay": "Tolerability in CD1 mice: liver function (Example 25)", "conditions": "50 mg/kg s.c. twice per week for 6 weeks, plasma"}, "[2]": {"assay": "Tolerability in CD1 mice: hematology assays (Example 25)", "design": "RBC / WBC / Neutrophil / Lymphocyte / Platelets: unit not given here", "conditions": "50 mg/kg s.c. twice per week for 6 weeks, blood"}, "[3]": {"assay": "Tolerability in CD1 mice: body and organ weight (Example 25)", "conditions": "50 mg/kg s.c. twice per week for 6 weeks"}, "[4]": {"assay": "Tolerability in CD1 mice: kidney function (Example 25)", "conditions": "50 mg/kg s.c. twice per week for 6 weeks, plasma"}}, "note": "In the oligonucleotide strings, read from the 5' end, every base follows the letter of its sugar. An asterisk marks phosphorothioate; unmarked linkages are phosphodiester. Other units and linkages are bracketed, terminal groups are in braces. A string of capitals states the bases alone. e = 2'-O-(2-methoxyethyl) (MOE); [5mC] = 5-methylcytosine; d = 2'-deoxy (DNA)"}
{"substance": "ISIS 445503: microwalk gapmer of Table 51 (antisense eG*e[5mC]*eA*eT*eT*eG*dG*dT*dG*d[5mC]*dA*d[5mC]*dA*dG*eT*eT*eT*e[5mC]*eT*eG)", "values": [{"measurement": "ALT", "setting": "[1]", "result": 1314, "unit": "IU/L"}, {"measurement": "AST", "setting": "[1]", "result": 852, "unit": "IU/L"}, {"measurement": "Albumin", "setting": "[1]", "result": 3.4, "unit": "mg/dL"}, {"measurement": "Bilirubin", "setting": "[1]", "result": 0.28, "unit": "mg/dL"}, {"measurement": "HCT", "setting": "[2]", "result": 46, "unit": "%"}, {"measurement": "Hemoglobin", "setting": "[2]", "result": 13.6, "unit": "g/dL"}, {"measurement": "Lymphocyte", "setting": "[2]", "result": 6436}, {"measurement": "Neutrophil", "setting": "[2]", "result": 1475}, {"measurement": "Platelets", "setting": "[2]", "result": 309}, {"measurement": "RBC", "setting": "[2]", "result": 9.2}, {"measurement": "WBC", "setting": "[2]", "result": 8}, {"measurement": "Body weight (increase over PBS control weight before start of treatment)", "setting": "[3]", "result": 9, "unit": "g"}, {"measurement": "Kidney weight as percentage of body weight", "setting": "[3]; end of study", "result": 1.4, "unit": "%"}, {"measurement": "Liver weight as percentage of body weight", "setting": "[3]; end of study", "result": 8, "unit": "%"}, {"measurement": "Spleen weight as percentage of body weight", "setting": "[3]; end of study", "result": 0.6, "unit": "%"}, {"measurement": "BUN", "setting": "[4]", "result": 29, "unit": "mg/dL"}]}
